Reference: patent publication US20240293459A1 (priority 2021, published 2024)

System: healthy donor PBMC (CD8+ T cells)
Type: cell-based, human
Settings: of one 48 well plate; two rounds of stimulation with peptide-pulsed autologous DCs; HLA-matched healthy donor

For KLFAAETLK [NSP13-134], the “wells showing clear peptide tetramer positive CD8+ T cell population” value was 11 wells.

With TLVPQEHYV [NSP13-242] the “wells showing clear peptide tetramer positive CD8+ T cell population” value was 48 wells.

For “VYIGDPAQL (listed as Homo Sapiens) [NSP13-400, NSP13 derived HLA-A2402 peptide]”, the “wells showing clear peptide tetramer positive CD8+ T cell population” value was 9 wells.
